# From patent US20090143279A1 (priority 2007, published 2009)
# Read-outs that look alike come from different tables or passages of the source.
# Columns and labels:
# [1] = system: reactive oxygen species; assay type: cell-based, mouse; conditions: for ROS (composite Z-score): normalized score vs mock-treated (DMSO) wells
# [2] = system: mitochondrial membrane potential; assay type: cell-based, mouse; conditions: for ΔΨm (composite Z-score): normalized score vs mock-treated (DMSO) wells
# [3] = system: cytochrome c; assay type: cell-based, mouse; conditions: for cyt c (composite Z-score): normalized score vs mock-treated (DMSO) wells
# [4] = system: nuOXPHOS transcripts; assay type: cell-based, mouse; conditions: for nucOX (composite Z-score): normalized score vs mock-treated (DMSO) wells
# [5] = system: cellular dehydrogenase activity; conditions: for MTT (composite Z-score): normalized score vs mock-treated (DMSO) wells
# [6] = system: C2C12 myotubes; conditions: for Viability (composite Z-score): normalized score vs mock-treated (DMSO) wells
# [7] = system: OXPHOS gene expression; assay type: cell-based, mouse; conditions: for GE-HTS (composite Z-score): normalized score vs mock-treated (DMSO) wells
# [8] = system: mtOXPHOS transcripts; assay type: cell-based, mouse; conditions: for mitoOX (composite Z-score): normalized score vs mock-treated (DMSO) wells
# [9] = normalized composite Z-score vs mock-treated (DMSO) wells, Conc 20 μM
# [10] = composite Z-score vs mock-treated (DMSO) wells, Conc 20 μM
# [11] = composite Z-score vs DMSO, Conc 20 μM
compound,measurement,setting,value
O=C(Oc1cc(OC(=O)c2ccccc2)c2c(c1)O[C@H](c1ccc(OC(=O)c3ccccc3)c(OC(=O)c3ccccc3)c1)[C@@H](OC(=O)c1ccccc1)C2)c1ccccc1 [catechin pentabenzoate],ROS (composite Z-score),[1]; Conc 20 μM,0.599
same,ΔΨm (composite Z-score),[2]; Conc 20 μM,−1.326
same,cyt c (composite Z-score),[3]; Conc 20 μM,1.272
same,nucOX (composite Z-score),[4]; Conc 20 μM,−0.815
same,MTT (composite Z-score),[5]; Conc 20 μM,−1.672
same,Viability (composite Z-score),[6]; Conc 20 μM,−1.434
same,GE-HTS (composite Z-score),[7]; Conc 20 μM,−0.898
same,mitoOX (composite Z-score),[8]; Conc 20 μM,−0.896
COc1cc(OC)c2c(c1)O[C@H](c1ccc(OC)c(OC)c1)[C@@H](O)C2 [catechin tetramethylether],ROS,[1]; [9],−0.094
same,ΔΨm,[2]; [9],−0.172
same,cyt c,[3]; [9],0.586
same,nucOX,[4]; [9],−1.106
same,MTT,[5]; [9],−0.573
same,Viability,[6]; [9],0.435
same,GE-HTS,[7]; [9],−1.052
same,mitoOX,[8]; [9],−0.798
COc1cc(O)c(C(=O)c2ccccc2)cc1O [cearoin],ROS,[1]; [10],−2.274
same,ΔΨm,[2]; [10],−1.006
same,cyt c,[3]; [10],−1.478
same,nucOX,[4]; [10],−1.568
same,MTT,[5]; [10],−2.331
same,Viability,[6]; [10],−1.078
same,GE-HTS,[7]; [10],−1.672
same,mitoOX,[8]; [10],−1.603
CC(=O)O[C@]1(C)CC[C@@]23C[C@@H]1C(C)(C)[C@@H]2CC[C@H]3C [cedryl acetate],ROS,[1]; [9],1.566
same,ΔΨm,[2]; [9],−0.042
same,cyt c,[3]; [9],0.388
same,nucOX,[4]; [9],0.184
same,MTT,[5]; [9],−0.176
same,Viability,[6]; [9],−0.311
same,GE-HTS,[7]; [9],0.067
same,mitoOX,[8]; [9],−0.149
N[C@@H](C(=O)N[C@@H]1C(=O)N2C(C(=O)O)=C(Cl)CS[C@H]12)c1ccccc1 [cefaclor],ROS,[1],0.387
same,ROS,[1]; [11],0.297
same,ΔΨm,[2],−0.759
same,ΔΨm,[2]; [11],−0.772
same,cyt c,[3],−0.764
same,cyt c,[3]; [11],0.231
same,nucOX,[4],0.535
same,nucOX,[4]; [11],−0.506
same,MTT,[5],−1.329
same,MTT,[5]; [11],−0.752
same,Viability,[6],0.762
same,Viability,[6]; [11],−0.091
same,GE-HTS,[7],0.331
same,GE-HTS,[7]; [11],−0.547
same,mitoOX,[8],−0.161
same,mitoOX,[8]; [11],−0.435
CO/N=C(\C(=O)N[C@@H]1C(=O)N2C(C(=O)OCOC(=O)C(C)(C)C)=C(/C=C\c3scnc3C)CS[C@H]12)c1csc(N)n1 [cefditorin pivoxil],ROS,[1]; [11],0.426
same,ΔΨm,[2]; [11],0.245
same,cyt c,[3]; [11],0.200
same,nucOX,[4]; [11],0.100
same,MTT,[5]; [11],−0.718
same,Viability,[6]; [11],−0.219
same,GE-HTS,[7]; [11],0.238
same,mitoOX,[8]; [11],0.440
CCN1CCN(C(=O)N[C@@H](C(=O)N[C@@H]2C(=O)N3C(C(=O)O)=C(CSc4nnnn4C)CS[C@H]23)c2ccc(O)cc2)C(=O)C1=O [cefoperazone],ROS,[1]; [10],−0.295
same,ΔΨm,[2]; [10],−0.908
same,cyt c,[3]; [10],1.001
same,nucOX,[4]; [10],0.013
same,MTT,[5]; [10],−0.793
same,Viability,[6]; [10],0.097
same,GE-HTS,[7]; [10],0.130
same,mitoOX,[8]; [10],0.367
CO/N=C(\C(=O)N[C@@H]1C(=O)N2C(C(=O)O)=C(COC(C)=O)CS[C@H]12)c1csc(N)n1 [cefotaxime],ROS,[1]; [11],1.000
same,ΔΨm,[2]; [11],−0.276
same,cyt c,[3]; [11],0.366
same,nucOX,[4]; [11],−0.450
same,MTT,[5]; [11],−2.276
same,Viability,[6]; [11],−1.283
same,GE-HTS,[7]; [11],−0.379
same,mitoOX,[8]; [11],−0.214
CO/N=C(\C(=O)N[C@@H]1C(=O)N2C(C(=O)O)=C(CSc3nc(=O)c(=O)[nH]n3C)CS[C@H]12)c1csc(N)n1 [ceftriaxone],ROS,[1],−0.002
same,ΔΨm,[2],−0.461
same,cyt c,[3],0.481
same,nucOX,[4],−0.439
same,MTT,[5],−1.040
same,Viability,[6],−0.792
same,GE-HTS,[7],−0.433
same,mitoOX,[8],−0.382
CO/N=C(\C(=O)N[C@@H]1C(=O)N2C(C(=O)O)=C(COC(N)=O)CS[C@H]12)c1ccco1 [cefuroxime],ROS,[1]; [11],0.366
same,ΔΨm,[2]; [11],−0.358
same,cyt c,[3]; [11],−0.495
same,nucOX,[4]; [11],0.790
same,MTT,[5]; [11],−0.536
same,Viability,[6]; [11],−0.846
same,GE-HTS,[7]; [11],0.816
same,mitoOX,[8]; [11],0.699
OC[C@H]1O[C@@H](O[C@H]2[C@H](O)[C@@H](O)[C@H](O)O[C@@H]2CO)[C@H](O)[C@@H](O)[C@@H]1O [cellobiose (D[+])],ROS,[1]; [9],−0.298
same,ΔΨm,[2]; [9],−0.571
same,cyt c,[3]; [9],0.380
same,nucOX,[4]; [9],0.051
same,MTT,[5]; [9],0.411
same,Viability,[6]; [9],0.390
same,GE-HTS,[7]; [9],−0.127
same,mitoOX,[8]; [9],−0.466
COc1ccc(-c2oc3cc(O[C@@H]4O[C@H](CO)[C@@H](O)[C@H](O)[C@H]4O)c(OC)c(O)c3c(=O)c2OC)cc1O [centaurein],ROS (composite Z-score),[1]; Conc 20 μM,−0.090
same,ΔΨm (composite Z-score),[2]; Conc 20 μM,−0.744
same,cyt c (composite Z-score),[3]; Conc 20 μM,−0.039
same,nucOX (composite Z-score),[4]; Conc 20 μM,0.388
same,MTT (composite Z-score),[5]; Conc 20 μM,−1.640
same,Viability (composite Z-score),[6]; Conc 20 μM,−0.006
same,GE-HTS (composite Z-score),[7]; Conc 20 μM,0.497
same,mitoOX (composite Z-score),[8]; Conc 20 μM,0.657
